Literature values, collected in US20080153785A1, “Pharmaceutical Compositions Containing Biophosphonate for Improving Oral Absorption” (CHONG KUN DANG PHARMACEUTICAL CORP., priority 2005, published 2008).

Details: long-term treatment, normally taken

NCCCC(O)(P(=O)(O)O)P(=O)(O)O [alendronate, 4-Amino-1-hydroxybutylidene-1,1-biphosphonate]
incidence of heartburn or epigastric pain: about 36 % of patients
